The nature of the test: 31P NMR evidence for guanidinium-phosphonate binding (addition of amphiphile or comparator to MePO3K2). As to conditions: for change of the 31P signal of the phosphonate on addition (shift and broadening, in words): FIGS. 11A-D. The text has this: Guanidinium binds to phosphonate through a salt bridge that is buttressed by a bidentate hydrogen bonding system FIG. 10. This interaction is generally stable within a wide range of pH values. Thus, guanidinium-functionalized amphiphiles (29a-c) should form complexes with phosphonates in aqueous buffer. We show here the interaction between amphipile (29a) and MePO3K2 using ^31P NMR, FIGS. 11A-D, which has been used as a probe for phosphate binding to several types of cations. […] This broadening effect is more pronounced as additional compound (29a) is added. The change in the shape of the peak is consistent with reduced tumbling associated with increased size or reversible association of compound (29a) with MePO3K2, which indicates complexation between the guanidinium species and the phosphonate group. […] Thus, guanidinium compound (29a) is not merely protonating the phosphonate in FIG. 11A. […] Urea is structurally similar to guanidinium and can potentially complex a phosphonate in a manner similar to compound (29a) (FIG. 10). In the presence of HCl, similar chemical behavior is expected when MePO3K2 is treated with urea as when it is treated with compound 29.

Where a name gives a salt, the structure may show the parent alone.

The values below come from US9273184B1, “Synthesis of highly fluorinated amines for use in polymers and biomaterials” (University of Southern California, priority 2009, dated 2016).

For `Cl` [HCl], the “change of the 31P signal of the phosphonate on addition (shift and broadening, in words)” value (from here on “change … (shift and broadening, in words)”) is “remains sharp and shifts downfield”. Also, under “MePO3K2 + 1 eq of additive”, the “31P Chemical shift of MePO3K2” value was 27.8 ppm and the “31P Half-Height Width of MePO3K2” value is recorded as 3.8 Hz. For the same molecule, under “MePO3K2 + 2 eq of additive”, the “31P Chemical shift of MePO3K2” value came to 29.9 ppm and the “31P Half-Height Width of MePO3K2” value amounted to 3.4 Hz. Moreover, where the note is “MePO3K2 + 3 eq of additive”, the “31P Chemical shift of MePO3K2” value is listed as 30.4 ppm and the “31P Half-Height Width of MePO3K2” value stood at 3.4 Hz. Also, the “31P chemical shift of protonated MePO3H2” value (in the presence of HCl, FIG. 11B, equivalents not given) is given as 30.4 ppm.

In the case of `Cl.N` [NH4Cl], the “change … (shift and broadening, in words)” value is listed as “small downfield shift like HCl, but did not broaden the signal”. For the same molecule, where the note is “MePO3K2 + 1 eq of additive”, the “31P Chemical shift of MePO3K2” value was 21.8 ppm and the “31P Half-Height Width of MePO3K2” value was 3.6 Hz. In addition, for the setting “MePO3K2 + 4 eq of additive”, the “31P Chemical shift of MePO3K2” value was determined as 22.1 ppm and the “31P Half-Height Width of MePO3K2” value came to 4.2 Hz.

Consider `NC(N)=O` [urea, Urea], for which the “change … (shift and broadening, in words)” value is given as “do not broaden”. For the same molecule, for the setting “MePO3K2 + 1 eq urea + 2 eq HCl”, the “31P Chemical shift of MePO3K2” value was determined as 27.6 ppm and the “31P Half-Height Width of MePO3K2” value stood at 3.3 Hz. For the same molecule, where the note is “MePO3K2 + 4 eq urea + 2 eq HCl”, the “31P Chemical shift of MePO3K2” value came to 27.7 ppm and the “31P Half-Height Width of MePO3K2” value amounted to 3.6 Hz.
